ChEMBL document CHEMBL3414440, “Pure enantiomers of benzoylamino-tranylcypromine: LSD1 inhibition, gene modulation in human leukemia cells and effects on clonogenic potential of murine promyelocytic blasts” (Eur J Med Chem, 2015)

How the values were obtained:
[1] = target: T1, Amine oxidase [flavin-containing] B (Homo sapiens, UniProt P27338)
T1 sequence (P27338 whole entry): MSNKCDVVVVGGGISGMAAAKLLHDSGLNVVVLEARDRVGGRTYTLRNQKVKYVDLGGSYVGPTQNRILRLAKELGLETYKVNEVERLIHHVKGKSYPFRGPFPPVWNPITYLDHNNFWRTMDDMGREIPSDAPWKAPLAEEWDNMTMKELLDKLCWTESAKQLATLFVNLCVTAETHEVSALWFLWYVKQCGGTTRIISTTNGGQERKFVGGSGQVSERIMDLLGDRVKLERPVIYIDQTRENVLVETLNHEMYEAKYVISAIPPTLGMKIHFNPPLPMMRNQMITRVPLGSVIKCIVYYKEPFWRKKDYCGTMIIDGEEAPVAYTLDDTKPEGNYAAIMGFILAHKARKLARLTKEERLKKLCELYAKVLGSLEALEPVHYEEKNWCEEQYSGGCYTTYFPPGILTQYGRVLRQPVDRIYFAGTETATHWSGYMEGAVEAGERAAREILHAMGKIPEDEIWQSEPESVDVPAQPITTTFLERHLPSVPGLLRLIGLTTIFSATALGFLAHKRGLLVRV
Description: Inhibition of human recombinant MAOB expressed in Pichia pastoris incubated for 15 mins prior to substrate addition measured after 30 mins by luminescence assay

[2] = target: T2, Amine oxidase [flavin-containing] A (Homo sapiens, UniProt P21397)
T2 sequence (P21397 whole entry): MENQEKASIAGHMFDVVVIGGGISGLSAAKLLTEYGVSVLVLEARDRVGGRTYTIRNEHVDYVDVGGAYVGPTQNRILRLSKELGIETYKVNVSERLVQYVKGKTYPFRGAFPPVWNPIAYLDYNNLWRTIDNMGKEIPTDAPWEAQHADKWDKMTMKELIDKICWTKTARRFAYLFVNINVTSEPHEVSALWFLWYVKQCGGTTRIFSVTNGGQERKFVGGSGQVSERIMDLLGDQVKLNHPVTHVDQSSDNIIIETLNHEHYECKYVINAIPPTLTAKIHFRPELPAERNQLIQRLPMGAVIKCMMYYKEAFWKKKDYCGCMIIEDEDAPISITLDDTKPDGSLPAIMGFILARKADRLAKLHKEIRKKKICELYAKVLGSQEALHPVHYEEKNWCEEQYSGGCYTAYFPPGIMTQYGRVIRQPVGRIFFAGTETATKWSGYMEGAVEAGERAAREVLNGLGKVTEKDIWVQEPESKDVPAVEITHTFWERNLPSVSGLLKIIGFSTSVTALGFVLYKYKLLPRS
Description: Inhibition of human recombinant MAOA expressed in Pichia pastoris incubated for 15 mins prior to substrate addition measured after 30 mins by luminescence assay

cells = details: Mus musculus, Leukemia cell, read-out: INH
Description: Inhibition of colony formation in mouse acute myeloid Leukemia cell assessed as colony forming unit at 0.25 uM after 7 days relative to control

[3] = target: T3, MAO-B (amine oxidase [flavin-containing] B) (Homo sapiens, UniProt P27338); test: Inhibition of human recombinant MAOB expressed in Pichia pastoris at 100 uM incubated for 15 mins prior to substrate addition measured after 30 mins by luminescence assay
T3 sequence (P27338 whole entry): T1 sequence (P27338 whole entry)

Row | SMILES | IC50 [1] [nM] | IC50 [2] [nM] | inhibition at […] (cells) [%] | inhibition at 0.5 h, 100 µM [3] [%]
1 | N[C@H]1C[C@H]1c1cccc(NC(=O)c2ccccc2)c1 | 80100 | 70 | – | –
2 | N[C@H]1C[C@H]1c1ccc(NC(=O)c2ccccc2)cc1 | – | – | 83.8 | –
3 | N[C@@H]1C[C@@H]1c1ccc(NC(=O)c2ccccc2)cc1 | – | – | 72 | –
4 | N[C@H]1C[C@@H]1c1ccc(NC(=O)c2ccccc2)cc1 | – | – | 64 | –
5 | N[C@@H]1C[C@@H]1c1cccc(NC(=O)c2ccccc2)c1 | – | 650 | – | 34
6 | N[C@H]1C[C@@H]1c1cccc(NC(=O)c2ccccc2)c1 | – | 1370 | – | 29
7 | N[C@@H]1C[C@H]1c1ccc(NC(=O)c2ccccc2)cc1 | – | – | 83.4 | –
8 | N[C@@H]1C[C@H]1c1cccc(NC(=O)c2ccccc2)c1 | 84700 | 1540 | – | –
